Measured values as given in patent US20030224000A1, “Methods for blocking or alleviating staphylococcal nasal colonization by intranasal application of monoclonal antibodies” (priority 2001, published 2003).

Key:
[1] = tested on: S. aureus strain MBT 5040; experiment: Minimal inhibitory concentration (MIC); format: cell-based; conditions: Staphylococcus aureus; S. aureus MBT 5040, clinical MRSA strain
[2] = tested on: streptomycin resistant S. aureus type 5 (SA5); experiment: Mouse nasal colonization model, S. aureus preincubated with MAb before instillation; format: in vivo, mice
Procedure: Kiser et al. developed a staphylococcal nasal colonization model in mice to study staphylococcal factors that influence nasal colonization (30). […] Briefly, streptomycin resistant S. aureus type 5 was grown on high salt Columbia agar to promote capsule formation. The bacteria were washed with sterile saline to remove media components and resuspended at ˜10^8 organisms/animal dose in saline containing various concentrations and combinations of anti-staphylococcal or irrelevant control MAbs. Following a preincubation of 1 hr, the bacteria were repelleted and resuspended in a final volume of 10 μl per animal dose in either saline or saline containing antibody. Mice that have been maintained on streptomycin-containing water for 24 hrs were sedated with anesthesia. Staphylococci were instilled in the nares of the mice by pipetting without contact with the nose.
Generally, following four to seven days during which the animals were maintained on streptomycin-containing water, the animals were sacrificed and the noses removed surgically and dissected. Nasal tissue was vortexed vigorously in saline plus 0.5% Tween-20 to release adherent bacteria, and the saline was plated on Columbia blood agar and tryptic soy agar containing streptomycin to determine colonization.
According to this procedure, streptomycin-resistant S. aureus type 5 (SA5, 1 to 3×10^8/mouse) was preincubated for 1 hr in saline or saline containing A110 (2-3 mg purified IgG/mouse dose of 1-3×10^8 bacteria). Following preincubation, the bacteria were pelleted and resuspended in saline or in saline containing A110 (10 μl/mouse dose). Ten mice each were intranasally instilled with SA5 in saline or SA5 in A110. Table 4 tabulates three experiments showing that nasal application of A110 in PBS blocks and alleviates staphylococcal nasal colonization.

[3] = Table 5: 2 × 10^8 SA5 instilled with MAb, 2 mg/mouse dose

Row | Molecule | MIC [1] [µg/mL] | Effect on staphylococcal nasal colonization in mice ([2]; MAb in saline, Table 5 experiment) | Average number of colonies recovered per mouse [2, 3] | Number of mice colonized [2, 3]
1 | COc1cccc(OC)c1C(=O)N[C@@H]1C(=O)N2[C@@H]1SC(C)(C)[C@@H]2C(=O)O [methicillin] | > 36 | – | – | –
2 | Medi 493: irrelevant control, chimeric IgG1 MAb against RSV (MedImmune) | – | no effect | 137 | 9/9
